Results on 58 molecules are retold here after US7507727B2, “Substituted quinobenzoxazine analogs and methods of using thereof” (Cylene Pharmaceuticals, Inc., priority 2003, dated 2009).

One assay has as its target c-Myc template DNA (c-myc quadruplex). The experiment in a line: Quadruplex binding / stop assay (Taq polymerase arrest, capillary electrophoresis). The note with it: read-out: S DATA; Table 1D, stop assay data.
Take `CN1CCCC1CCNC(=O)c1cn2c3c(c(NC[C@H]4CCCO4)c(F)cc3c1=O)Oc1cc3ccccc3cc1-2` (stereo partly shown) [compound 1736]: the IC50 stood at 3 µM.
Take `CC(C)N1CCN(c2c(F)cc3c(=O)c(C(=O)NCCN4CCCC4)cn4c3c2Oc2cccnc2-4)CC1` [compound 1801]: the IC50 is 8.2 µM.
Still for that read-out and setting: the same measure for `O=C(NCCN1CCCC1)c1cn2c3c(c(N4CCN(Cc5ccoc5)CC4)c(F)cc3c1=O)Oc1cc(Cl)ccc1-2` [compound 1832]: 10 µM; for `CN1CCCC1CCNC(=O)c1cn2c3c(c(NC(=O)C4CCCNC4)c(F)cc3c1=O)Oc1cc3ccccc3cc1-2` (stereo not shown) [compound 1480]: 1.75 µM; for `CN1CCN(CCCNc2c(F)cc3c(=O)c(C(=O)N4CCC(N)C4)cn4c3c2Oc2ccccc2-4)CC1` (stereo not shown) [compound 1628]: more than 15 µM.
`C[C@@H](O)CNc1c(F)cc2c(=O)c(C(=O)NCCC3CCCN3C)cn3c2c1Oc1cc2ccccc2cc1-3` (stereo partly shown) [compound 1682]: the IC50 stood at 0.75 µM.
Same read-out and setting: the same measure for `O=C(c1cn2c3c(c(N4CC5CCCNC5C4)c(F)cc3c1=O)Oc1cc3ccccc3cc1-2)N1CCC(N2CCCC2)CC1` (stereo not shown) [compound 1643]: more than 15 µM; for `CN1CCCC1CCNC(=O)c1cn2c3c(c(N4CCC(NC(=O)OC(C)(C)C)CC4)c(F)cc3c1=O)Oc1cc3ccccc3cc1-2` (stereo not shown) [compound 1498]: 1.75 µM.
Same read-out and setting: the same measure for `NC1CCN(c2c(F)cc3c(=O)c(C(=O)NCCCN4CCOCC4)cn4c3c2Oc2ccccc2-4)C1` (stereo not shown) [compound 1619]: more than 15 µM; for `CC(C)(C)OC(=O)NC1CCN(c2ccc3c(=O)c(C(=O)NCCN4CCCC4)cn4c3c2Oc2cc3ccccc3cc2-4)C1` (stereo not shown) [compound 1534]: more than 15 µM; for `CCCCN1CCC(CNC(=O)c2cn3c4c(c(N5CCC(N)C5)c(F)cc4c2=O)Oc2cc4ccccc4cc2-3)CC1` (stereo not shown) [compound 1718]: 1.75 µM.
The same measure, in the same setting: in the case of `O=C(NCCN1CCOCC1)c1cn2c3c(c(N4CCC(c5cnccn5)C4)c(F)cc3c1=O)Oc1cc(Cl)ccc1-2` (stereo not shown) [compound 1790] it was more than 15 µM.
Regarding `CN1CCCC1CCNC(=O)c1cn2c3c(c(N4CCN(C(=O)OC(C)(C)C)CC4)c(F)cc3c1=O)Oc1cc(Cl)ccc1-2` (stereo not shown) [compound 1819], the IC50 was 10 µM.
Take `CC(C)(C)OC(=O)NC1CCN(c2ccc3c(=O)c(C(=O)NCCCN4CCOCC4)cn4c3c2Oc2cc3ccccc3cc2-4)C1` (stereo not shown) [compound 1536]: the IC50 is more than 15 µM.
The same measure, in the same setting: the same measure for `CCC(=O)N1CCN(c2c(F)cc3c(=O)c(C(=O)NCCN4CCCC4)cn4c3c2Oc2cc(Cl)ccc2-4)CC1` [compound 1822]: 10 µM.
Regarding `CN1CCCC1CCNC(=O)c1cn2c3c(c(N4CCC(C#N)(c5ccccc5)CC4)c(F)cc3c1=O)Oc1cc3ccccc3cc1-2` (stereo not shown) [compound 1491], the IC50 came to 1.75 µM.
The same measure, in the same setting: in the case of `CN1CCCC1CCNC(=O)c1cn2c3c(c(NCC(C)(C)CO)c(F)cc3c1=O)Oc1cc3ccccc3cc1-2` (stereo not shown) [compound 1744] it was more than 15 µM; in that of `CN1CCCC1CCNC(=O)c1cn2c3c(c(N4CCC(n5c(=O)[nH]c6ccccc65)CC4)c(F)cc3c1=O)Oc1cc3ccccc3cc1-2` (stereo not shown) [compound 1477], 1 µM; in that of `CCOC(=O)N1CCC(Nc2c(F)cc3c(=O)c(C(=O)NCCC4CCCN4C)cn4c3c2Oc2cc3ccccc3cc2-4)CC1` (stereo not shown) [compound 1485], 1.75 µM.
Same read-out and setting: in the case of `CCN(CC)CCCC(C)NC(=O)c1cn2c3c(c(N4CC5CCCNC5C4)ccc3c1=O)Oc1ccccc1-2` (stereo not shown) [compound 1730] it was more than 15 µM.
The same measure, in the same setting: in the case of `CN(C)CCCCNC(=O)c1cn2c3c(c(NCCN4CCOCC4)ccc3c1=O)Oc1cc3ccccc3cc1-2` [compound 1550] it was more than 15 µM; in that of `CN1CCCC1CCNC(=O)c1cn2c3c(c(N4CCC(C(N)=O)CC4)c(F)cc3c1=O)Oc1cc3ccccc3cc1-2` (stereo not shown) [compound 1493], 1.75 µM; in that of `CCN(CC)CCCC(C)NC(=O)c1cn2c3c(c(N4CCC(c5cnccn5)C4)ccc3c1=O)Oc1cc3ccccc3cc1-2` (stereo not shown) [compound 1720], 1 µM.
In the case of `N=C(N)NCCCCNC(=O)c1cn2c3c(c(N4CC5CCCNC5C4)c(F)cc3c1=O)Oc1cc3ccccc3cc1-2` (stereo not shown) [compound 1648], the IC50 was determined as 1 µM.

The assay is the same for the next values; noted with them: read-out: Stop Data c-Myc μM; concentration at which 50% of the DNA was arrested (arrested:full-length 1:1).
For the molecule `CN1CCCC1CCNC(=O)c1cn2c3c(c(N4CCC(c5cccnc5)C4)c(F)cc3c1=O)Oc1cc3ccccc3cc1-2` (stereo not shown) [compound 443], the IC50 worked out at 0.75 µM.
Same read-out and setting: the same measure for `N=C(N)NCCCCNC(=O)c1cn2c3c(c(N4CC5CCCNC5C4)c(F)cc3c1=O)Oc1cc3ccccc3cc1-2` (stereo not shown) [compound 328]: 1 µM; for `O=C(O)c1cn2c3c(c(NCC4CCCO4)c(F)cc3c1=O)Oc1cc3ccccc3cc1-2` (stereo not shown) [compound 1]: 4 µM; for `O=C(NCCN1CCCC1)c1cn2c3cc4c(cc3oc3c(NCCN5CCOCC5)c(F)cc(c1=O)c32)c(=O)c1ccccc14` [compound 419]: 0.75 µM.
On the same count and under the same terms, the same measure for `CN1CCCC1CCNCC(=O)N[C@@H]1CCN(c2c(F)cc3c(=O)c(C(=O)NCCN4CCCCC4)cn4c3c2Oc2cc3c(cc2-4)oc2ccccc23)C1` (stereo partly shown) [compound 409]: 0.75 µM; for `CN1CCN(CCCNc2c(F)cc3c(=O)c(C(=O)N4CCN(C)CC4)cn4c3c2Oc2cc3c(cc2-4)oc2ccccc23)CC1` [compound 154]: 1.75 µM.
The same measure, in the same setting: in the case of `CN1CCC[C@H]1CCNC(=O)c1cn2c3c(c(N4CCC(c5cnccn5)C4)c(F)cc3c1=O)Oc1cc3ccccc3cc1-2` (stereo partly shown) [compound 339] it was 0.94 µM.
Regarding `CN1CCN(CCCNC(=O)c2cn3c4c(c(N5CC6CCCNC6C5)c(F)cc4c2=O)Oc2cc4ccccc4cc2-3)CC1` (stereo not shown) [compound 461], the IC50 worked out at 0.75 µM.
Same read-out and setting: in the case of `CC(CNc1c(F)cc2c(=O)c(C(=O)NCCC3CCCN3C)cn3c2c1Oc1cc2ccccc2cc1-3)c1ccccc1` (stereo not shown) [compound 285] it was 1.75 µM; in that of `O=C(O)c1cn2c3c(c(NCCN4CCCC4)c(F)cc3c1=O)Oc1c-2ccc2ccccc12` [compound 3], 2.5 µM.
The same measure, in the same setting: the same measure for `CC(C)(C)OC(=O)NC1CCN(c2c(F)c(N)c3c(=O)c(C(=O)NCCCN4CCOCC4)cn4c3c2Oc2cc3ccccc3cc2-4)C1` (stereo not shown) [compound 226]: 1.75 µM; for `NCc1cn2c3c(c(N4CCC(N)C4)c(F)cc3c1=O)Oc1cc3ccccc3cc1-2` (stereo not shown) [compound 99]: 2.5 µM.
Still for that read-out and setting: the same measure for `Nc1c(F)c(N2CCC(N)C2)c2c3c1c(=O)c(C(=O)N1CCC(N)C1)cn3-c1cc3ccccc3cc1O2` (stereo not shown) [compound 236]: 1.75 µM.
For the molecule `CN1CCN(CCCNc2c(F)cc3c(=O)c(C(=O)N4CCC(N)C4)cn4c5cc6c(=O)c7ccccc7c(=O)c6cc5oc2c34)CC1` (stereo not shown) [compound 95], the IC50 amounted to 2.5 µM.
Same read-out and setting: in the case of `CCCCN1CCC(CNC(=O)c2cn3c4c(c(N5CCC(N)C5)c(F)cc4c2=O)Oc2cc4ccccc4cc2-3)CC1` (stereo not shown) [compound 302] it was 1.75 µM; in that of `O=C(CNCCN1CCCC1)N[C@@H]1CCN(c2c(F)cc3c(=O)c(C(=O)N4CCOCC4)cn4c3c2Oc2cc3c(cc2-4)oc2ccccc23)C1` [compound 180], 1.75 µM; in that of `CC(C)(C)OC(=O)N[C@@H]1CCN(C(=O)c2cn3c4c(c(NCCCN5CCOCC5)c(F)cc4c2=O)Oc2cc4ccccc4cc2-3)C1` [compound 50], 2.5 µM.
Same read-out and setting: the same measure for `CC(C)(C)OC(=O)NC1CCN(c2c(F)c(N)c3c(=O)c(C(=O)NCCN4CCOCC4)cn4c3c2Oc2cc3ccccc3cc2-4)C1` (stereo not shown) [compound 229]: 1.75 µM; for `O=C(c1cn2c3c(c(NCC4CCNCC4)c(F)cc3c1=O)Oc1cc3ccccc3cc1-2)N1CCOCC1` [compound 44]: 2.5 µM; for `CN(C)CCCCNC(=O)c1cn2c3c(c(NCCCN4CCOCC4)c(F)cc3c1=O)Oc1cc3c(cc1-2)oc1ccccc13` [compound 145]: 1.75 µM.
On to `O=C(CCN1CCCC1)Nc1c(F)cc2c(=O)c(C(=O)NCCN3CCCC3)cn3c2c1Oc1cc2ccccc2cc1-3` [compound 90], for which the IC50 came out at 2.5 µM.
Still for that read-out and setting: in the case of `N[C@@H]1CCN(C(=O)c2cn3c4c(c(N5CC[C@@H](N)C5)c(F)cc4c2=O)Oc2c-3ccc3ccccc23)C1` [compound 78] it was 2.5 µM; in that of `CC1CCN(CCCNC(=O)c2cn3c4c(c(N5CCC(NC(=O)OC(C)(C)C)C5)c(F)cc4c2=O)Oc2cc4ccccc4cc2-3)CC1` (stereo not shown) [compound 243], 1.75 µM.
As to `CC(C)(C)OC(=O)NC1CCN(c2c(F)cc3c(=O)c(C(=O)NCCc4ccc(N)cc4)cn4c3c2Oc2cc3ccccc3cc2-4)C1` (stereo not shown) [compound 183], the IC50 worked out at 1.75 µM.
In the case of `CN1CCN(C(=O)c2cn3c4cc5c(=O)c6ccccc6c(=O)c5cc4oc4c(N5CCC(N)C5)c(F)cc(c2=O)c43)CC1` (stereo not shown) [compound 92], the IC50 amounted to 2.5 µM.
Still for that read-out and setting: the same measure for `CC1CCCC(C)N1CCCNC(=O)c1cn2c3c(c(N4CCC(N)C4)c(F)cc3c1=O)Oc1cc3ccccc3cc1-2` (stereo not shown) [compound 465]: 0.75 µM; for `CN1CCCC1CCNC(=O)c1cn2c3c(c(NCC4CCNC4)c(F)cc3c1=O)Oc1cc3ccccc3cc1-2` (stereo not shown) [compound 559]: 0.375 µM; for `CCN(CC)CCCC(C)Nc1c(F)cc2c(=O)c(C(=O)NCCC3CCCN3C)cn3c2c1Oc1cc2ccccc2cc1-3` (stereo not shown) [compound 436]: 0.75 µM.
On the same count and under the same terms, the same measure for `CC(C)CC(C)(C)CNC(=O)c1cn2c3c(c(N4CCC(NC(=O)OC(C)(C)C)C4)c(F)cc3c1=O)Oc1cc3ccccc3cc1-2` (stereo not shown) [compound 186]: 1.75 µM.
On the same count and under the same terms, in the case of `CN(C)CCCCNC(=O)c1cn2c3c(c(NCCCCN(C)C)c(F)cc3c1=O)Oc1c-2ccc2ccccc12` [compound 470] it was 0.64 µM; in that of `CN1CCN(CCCNc2ccc3c(=O)c(C(=O)NCCN4CCOCC4)cn4c3c2Oc2cc3ccccc3cc2-4)CC1` [compound 279], 1.75 µM.
With `O=C(NCCN1CCCC1)c1cn2c3cc4oc5cc([N+](=O)[O-])ccc5[nH]c4cc3oc3c(NCCCN4CCOCC4)c(F)cc(c1=O)c32` [compound 554], the IC50 was 0.375 µM.
The same measure, in the same setting: in the case of `O=C(NCCCN1CCOCC1)c1cn2c3cc4c(cc3oc3c(NCCCN5CCOCC5)c(F)cc(c1=O)c32)c(=O)c1ccccc14` [compound 203] it was 1.75 µM; in that of `CC(=O)N[C@@H]1CCN(c2c(F)cc3c(=O)c(C(=O)NCCCN4CCOCC4)cn4c3c2Oc2cc3c(cc2-4)oc2ccccc23)C1` [compound 178], 1.75 µM.
